Results published in patent US8765433B2, “Alcohol dehydrogenases (ADH) useful for fermentive production of lower alkyl alcohols” (priority 2009, dated 2014).

Legend:
Test in all cases: isobutyraldehyde reduction kinetics (A340, initial rates)
Type in all cases: biochemical
[1] = target: Achromobacter xylosoxidans SadB (SadB), SEQ ID NO: 26
Description: (§1) This example describes preparation of ADH-gene constructs for over-expression/purification and measurement of enzyme activities using a time-course assay. Horse-liver ADH (HLADH; A-6128) was purchased from Sigma. Achromobacter xylosoxidans SadB (SadB), Saccharomyces cerevisiae ADH6 (ScADH6) and ADH7 (ScADH7), Entamoeba histolytica ADH1 (EhADH1), Bos Taurus Aldehyde Reductase (BtARD), Beijerinckia indica subsp. Indica ATCC 9039 (BiADH), Clostridium beijerinckii ADH (CbADH), Rana perezi ADH8 (RpADH8), Rattus norvegicus ADH1 (RnADH1), Thermus sp. ATN1 ADH (TADH), Phenylobacterium zucineum HLK1 ADH (PzADH), Methylocella silvestris BL2 ADH (MsADH), Acinetobacter baumannii AYE ADH (AbADH), Geobacillus sp. WCH70 ADH (GbADH), Vanderwaltozyma polyspora DSM 70294 ADH (VpADH), Mucor circinelloides ADH (McADH), and Rhodococcus erythropolis PR4ADH (ReADH) were the candidates for which subclones were prepared for protein expression and purification.
(§2) As a routine practice, the crude extracts and purified proteins were assayed for butanol oxidation activity, in order to ensure that the recombinant proteins were active throughout the purification process. […] Alcohol oxidation activities were carried out in 50 mM sodium phosphate buffer at pH 8.8 and aldehyde reduction reactions were assayed in 190 mM potassium phosphate buffer at pH 7.0. Depending on the nature of reaction being carried out, the enzyme and cofactor stocks were diluted in the reaction buffers at the respective pHs. Either buffer or cell extract prepared from the proprietary E. coli strain (with no ADH plasmid) was used as the negative control for assays with purified protein and cell-free extracts, respectively.
(§3) Kinetic constants of the ADH enzymes were calculated and compared to identify those candidate ADH enzymes with the most desirable properties for the conversion of isobutyraldehyde to isobutanol in the last step of the engineered pathway for isobutanol production. The assays for determining the kinetic constants were carried out using initial rates from the assays described above. […] The concentration of a given enzyme was such that it was conducive for the measurement of initial velocities over a 1-min time course. For each enzyme, Michaelis-Menten plots were generated with a broad range of substrate concentrations. Rough estimates of KM were obtained, based on which the assays were redesigned so as to use substrate concentrations in the range 0.5 to 10 times the KM value, to be able to obtain the appropriate kinetic constants. […] Reactions with isobutanol substrate were performed at 30° C. in 50 mM Sodium phosphate buffer, pH 8.8, containing 7.5 mM NAD. The Enzyme kinetics module (Version 1.3) of SigmaPlot 11 (Systat Software, Inc.) was used to fit data to Michaelis-Menten equations and calculate the kinetic constants. The kcat/KM is derived from the individual numbers of kcat and KM and not an experimentally determined value.
(§4) For those enzymes marked with an asterisk in Table 7, at least 3 assays were performed with separate preparations of the enzyme. All other numbers are values from either one assay or are averages from 2 assays performed with the same enzyme sample.

[2] = target: T1, Saccharomyces cerevisiae ADH6 (ScADH6), SEQ ID NO: 22 (Saccharomyces cerevisiae, UniProt Q04894); details: relative to SadB
T1 sequence (Q04894 1-360): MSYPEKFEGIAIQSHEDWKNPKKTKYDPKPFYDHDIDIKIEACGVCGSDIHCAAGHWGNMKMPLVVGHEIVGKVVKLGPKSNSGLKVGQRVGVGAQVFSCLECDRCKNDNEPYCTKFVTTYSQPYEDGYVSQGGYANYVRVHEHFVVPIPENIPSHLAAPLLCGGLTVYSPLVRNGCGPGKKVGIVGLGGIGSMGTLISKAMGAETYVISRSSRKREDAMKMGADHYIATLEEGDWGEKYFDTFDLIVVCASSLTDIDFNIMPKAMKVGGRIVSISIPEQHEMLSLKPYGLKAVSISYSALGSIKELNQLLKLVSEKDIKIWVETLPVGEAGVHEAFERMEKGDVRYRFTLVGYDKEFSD
Description: as §1, §2, §3, §4

[3] = target: T2, Saccharomyces cerevisiae ADH7 (ScADH7), SEQ ID NO: 23 (Saccharomyces cerevisiae, UniProt P25377)
T2 sequence (P25377 1-361): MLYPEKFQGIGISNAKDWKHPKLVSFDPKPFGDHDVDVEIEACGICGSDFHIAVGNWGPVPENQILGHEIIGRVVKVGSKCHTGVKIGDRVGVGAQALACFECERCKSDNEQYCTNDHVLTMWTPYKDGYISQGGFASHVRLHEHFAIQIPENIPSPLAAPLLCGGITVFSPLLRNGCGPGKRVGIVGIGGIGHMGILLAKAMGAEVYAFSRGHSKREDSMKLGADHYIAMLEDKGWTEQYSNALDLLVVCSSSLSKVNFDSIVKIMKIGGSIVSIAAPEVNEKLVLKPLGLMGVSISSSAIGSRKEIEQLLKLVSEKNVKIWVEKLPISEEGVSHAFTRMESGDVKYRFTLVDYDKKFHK
Description: as §1, §2, §3, §4

[4] = target: T3, Rattus norvegicus ADH1 (RnADH1), SEQ ID NO: 32 (Rattus norvegicus, UniProt P06757)
T3 construct: hexa-histidine (pBADHisA) (N); made in house; host or cells: E. coli (BL21-CodonPlus or a proprietary E. coli strain)
T3 sequence (P06757 whole entry): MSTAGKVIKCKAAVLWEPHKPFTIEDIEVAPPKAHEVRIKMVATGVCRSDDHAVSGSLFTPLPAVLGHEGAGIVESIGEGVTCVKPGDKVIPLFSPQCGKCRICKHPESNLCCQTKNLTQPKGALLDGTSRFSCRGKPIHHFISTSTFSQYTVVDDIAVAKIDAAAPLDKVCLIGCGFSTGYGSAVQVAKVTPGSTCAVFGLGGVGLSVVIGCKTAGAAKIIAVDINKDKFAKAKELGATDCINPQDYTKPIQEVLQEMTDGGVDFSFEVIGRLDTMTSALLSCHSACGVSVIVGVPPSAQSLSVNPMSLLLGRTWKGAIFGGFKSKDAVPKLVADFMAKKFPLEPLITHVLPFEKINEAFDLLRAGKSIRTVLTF
Description: as §1, §2, §3, §4

[5] = target: T4, Thermus sp. ATN1 ADH (TADH), SEQ ID NO: 33 (Thermus sp. ATN1, UniProt B2ZRE3); details: relative to SadB
T4 sequence (B2ZRE3 1-347): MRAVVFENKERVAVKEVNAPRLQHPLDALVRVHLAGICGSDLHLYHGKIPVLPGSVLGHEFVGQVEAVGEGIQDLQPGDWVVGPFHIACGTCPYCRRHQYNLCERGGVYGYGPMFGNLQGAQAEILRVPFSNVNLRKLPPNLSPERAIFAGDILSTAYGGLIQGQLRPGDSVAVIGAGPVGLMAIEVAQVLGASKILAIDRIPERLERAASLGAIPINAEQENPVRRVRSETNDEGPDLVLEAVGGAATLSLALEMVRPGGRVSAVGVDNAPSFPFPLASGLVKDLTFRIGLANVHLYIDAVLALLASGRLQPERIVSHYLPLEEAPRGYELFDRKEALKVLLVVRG
Description: as §1, §2, §3, §4

CC(C)CO [isobutanol, 2-methylpropan-1-ol]
KI as a percentage of the same parameter for SadB ([1]; reference (SadB itself)): 100%
KI as a percentage of the same parameter for SadB [2]: 650%
Ki ([3]; read-out: KI (Isobutanol)): 88 mM
KI as a percentage of the same parameter for SadB ([3]; relative to SadB): 49%

CC(C)C=O [isobutyraldehyde]
Km ([1]; 30° C., pH 7.0, 200 μM NADH, read-out: KM (Isobutanal)): 1000 µM
kcat ([1]; isobutyraldehyde reduction, 30° C., pH 7.0, 200 μM NADH): 109 s⁻¹
KM as a percentage of the same parameter for SadB ([1]; reference (SadB itself)): 100%
kcat as a percentage of the same parameter for SadB ([1]; reference (SadB itself)): 100%
kcat/KM as a percentage of the same parameter for SadB ([1]; reference (SadB itself)): 100%
Km ([4]; 30° C., pH 7.0, NADH specific, low KM precludes accurate determination, read-out: KM (Isobutanal)): ≤ 3 µM
kcat ([4]; isobutyraldehyde reduction, 30° C., pH 7.0, NADH specific): ~5 s⁻¹
KM as a percentage of the same parameter for SadB ([4]; relative to SadB): <1%
kcat as a percentage of the same parameter for SadB ([4]; relative to SadB): 5%
kcat/KM as a percentage of the same parameter for SadB ([4]; relative to SadB): 1588%
KM as a percentage of the same parameter for SadB [2]: 60%
kcat as a percentage of the same parameter for SadB [2]: 43%
kcat/KM as a percentage of the same parameter for SadB [2]: 77%
KM as a percentage of the same parameter for SadB ([3]; relative to SadB): 30%
kcat as a percentage of the same parameter for SadB ([3]; relative to SadB): 33%
kcat/KM as a percentage of the same parameter for SadB ([3]; relative to SadB): 114%
KM as a percentage of the same parameter for SadB [5]: 130%
kcat as a percentage of the same parameter for SadB [5]: 14%
kcat/KM as a percentage of the same parameter for SadB [5]: 10%
